The source of these data is patent US7820829B2, “Bisbenzisoselenazolonyl derivatives having antineoplastic, anti-inflammatory and antithrombotic activities as well as their use” (Peking University, priority 2001, dated 2010).

SMILES strings stand for the structures.

Usually LD50 stands for the dose at which mortality reaches 50%. The inhibition is the change of the read-out against control, counted positive when it falls.

Data set [1] deals with mice. The settings on record: cited from earlier work.
Data set [2] has as its system xylene-induced ear oedema. Put plainly: Xylene-induced ear oedema in mice. Format: in vivo. The note with it: oral; for Inhibiting rate (%) (to aspirin): relative to aspirin 200 mg/kg; for Inhibiting rate (%) (to indomethacin): relative to indomethacin 22 mg/kg. The procedure: The anti-inflammatory effects of the test compounds E001, E002 and E 003 were evaluated in xylene-induced ear oedema in mice. The mice were randomized into a no-treatment control group, three reference groups and three treatment groups. There are 10 animals in each group. The test compounds, saline and reference drugs (indomethacin, Aspirin and Ebselen) were orally administered respectively. Ear oedema was induced by topical administration of xylene ([…] per ear) to the inner surface of the right ear after 1 hour of the administration. After 2 hours, the mice were killed. The change in the ear's weight with diameter of 8 mm was measured with a precision micrometer. The inhibiting rate of each compound to the xylene-induced ear oedema was calculated in accordance with the ear weight and the results were listed in Table 7.
The procedure described in Example 8 was repeated. And the results of the experiment are shown by the following table: […]

Data set [3] concerns thrombosis. Put plainly: Electrically induced thrombosis in rat neck artery (OT value). Format: in vivo. The note with it: male SD rats, oral 30 mg/kg, 1 hour after administration; electricity 3 mA, 180 s. The procedure: Male SD rats (300-400 g) were randomized into a no-treatment control group (0.25% CMC), an ASA reference group (0.25% CMC, a few Tween-80) and three treatment groups (the compounds E001, E002 and E003). There are 5 animals in each group. The inventive compounds and reference drugs were orally administered respectively in amount of 30 mg/kg. The animals were anesthetized with urethane after 1 hour of the administration. The neck artery was separated surgically and OT value was measured (the stimulating conditions: electricity, 3 mA; time, 180 s).

Data set [4] deals with HL-60. Briefly: E003 in combination with other antineoplastic agents on growth of cancer cell. Type of data set: cell-based, human. The note with it: HL-60, 24 h.
Data set [5] deals with Lewis lung cancer. Briefly: Lewis lung cancer transplanted in C57 mice. Format: in vivo, C57 mouse. The settings on record: 2 mg/kg. As for the experimental part:
Lewis lung cancer tissue was resuscitated and subcultured by standard procedure. A piece of Lewis lung cancer was transplanted into the subcutaneous space on the back of each C 57 mouse for inoculation and growth. The Lewis lung cancer cells were dispersed in saline to form a cell suspension of 10^6/ml. 0.2-0.3 ml of the suspension were inoculated into each C57 mouse Mice were randomized into three groups, 10 for each group. In the treatment group, the mice were injected i.p. with […] in amount of 50 mg/kg; in reference group, DDp, 2 mg/kg; and in the negative control group (solvent group), 0.5% CMC-Na. The total volume for every group is the same. […] was administered by i.p. from the second day of transplantation for 3 days until the mice were sacrificed. The C57 mice were disinfected with 70% alcohol. The Lewis lung cancer tissue was removed, photographed and weighted. Then, the subcutaneous tumors were fixed by formaldehyde for further analysis.

With `O=c1c2ccccc2[se]n1-c1ccccc1` [Ebselen, 2-phenyl-(1,2)-benzisoselenazol-3(2H)-on], the LD50 in data set [1] is above 6810 mg/kg. In data set [2] (Example 8, mice, 50 mg/kg), the Ear oedema % is recorded as 6.22%, the “Inhibiting rate (%) (to aspirin)” value is given as 41.48 (to aspirin) % and the “Inhibiting rate (%) (to indomethacin)” value is listed as 68.72 (to indomethacin) %.
Consider `CC(=O)Oc1ccccc1C(=O)O` [Aspirin], for which the Ear oedema % was determined as 10.63% in data set [2] (Example 8, mice, 200 mg/kg) and 10.27% in data set [2] (Example 11, mice, 200 mg/kg). The “Average OT value” in data set [3] came to 588.2 s.
On to `CC(=O)OC[C@H]1OC(OC(C)=O)[C@H](n2[se]c3ccccc3c2=O)[C@@H](OC(C)=O)[C@@H]1OC(C)=O` (stereo partly drawn) [Compound E001, 2-(1,3,4,6-tetra-O-acetyl-2-deoxy-D-glucopyranosyl)-(1,2)-benzisoselenazol-3(2H)-one], for which, in data set [2] (Example 8, mice, 50 mg/kg), the Ear oedema % turned out to be 4.81%, the “Inhibiting rate (%) (to aspirin)” value is 54.75 (to aspirin) % and the “Inhibiting rate (%) (to indomethacin)” value is reported as 75.81 (to indomethacin) %. In data set [3], the “Average OT value” was 561.2 s.
In the case of `CC(=O)O[C@H]1C(=O)[C@@]2(C)[C@H]([C@H](OC(=O)c3ccccc3)[C@]3(O)C[C@H](OC(=O)[C@H](O)[C@@H](NC(=O)c4ccccc4)c4ccccc4)C(C)=C1C3(C)C)[C@]1(OC(C)=O)CO[C@@H]1C[C@@H]2O` [Taxol], in data set [4] (Homo sapiens, Taxol alone 0.001 mg/L, read-out: Inhibition rate), the inhibition at 0.001 µg/mL was determined as 2 ± 1%. The inhibition at 0.01 µg/mL in data set [4] (Homo sapiens, Taxol alone 0.01 mg/L, read-out: Inhibition rate) worked out at 27 ± 7.9%.
Regarding `COc1cccc2c1C(=O)c1c(O)c3c(c(O)c1C2=O)C[C@@](O)(C(=O)CO)C[C@@H]3O[C@H]1C[C@H](N)[C@H](O)[C@H](C)O1` [Adriamycin], in data set [4] (Homo sapiens, Adriamycin alone 0.1 mg/L, read-out: Inhibition rate), the inhibition at 0.1 µg/mL is -7 ± 0.7%.
In the case of `COc1ccc2c(c1)c(CC(=O)O)c(C)n2C(=O)c1ccc(Cl)cc1` [Indomethacin], the Ear oedema % in data set [2] (Example 8, mice, 22 mg/kg) came to 19.89%; in data set [2] (Example 11, mice, 22 mg/kg) it was 19.12%.
On to `N.N.[Cl][Pt][Cl]` [DDP, Cisplatin], for which the Inhibition rate turned out to be 0.067 ± 0.014 in data set [4] (Cisplatin alone 0.5 μmol/L) and 0.12 ± 0.032 in data set [4] (Cisplatin alone 5 μmol/L). Besides, in data set [5], the “tumor volume, average” value came out at 473 mm^3.
